Data published in paper PMC11849073, “Specific recognition mechanism of an antibody to sulfated tyrosine and its potential use in biological research” (The Journal of Biological Chemistry, 2025).
“Also recorded” adds a separate entry of the source. Where no end group is shown, it is not given here. [ ]: non-standard residue; d: D form. sY = N[C@@H](Cc1ccc(OS(=O)(=O)O)cc1)C(=O)O

Assays:
[1] = test system: BA8 Fab; assay: DSF stabilizing effect of peptides on BA8; set-up: species or system rabbit; details: BA8 Fab before and after binding of peptide (solution after ITC)
Experimental: To assess the effect of sulfated peptide binding on the thermal stability of BA8, we performed differential scanning fluorimetry (DSF) measurements (Fig. 2C) ([25]). The melting temperature (Tm) of BA8 forming a complex with the sulfated peptide was 75.6 °C, whereas the pre-binding Tm was 70.8 °C.
The stabilization effect of the addition of these partially sulfated peptides on BA8 was evaluated using DSF measurements (Fig. S8).
The DSF thermal stability measurements were performed using a CFX Real-Time PCR System (Bio-Rad). First, 1 μl of 100 × SYPRO Orange stain was diluted with 19 μl of 8.3 μM unbound-BA8 Fab or the solution remaining in the cell after ITC measurement. Next, fluorescence was scanned every minute to obtain melting curves of the solutions as they were heated at 1.0 °C/min. The change in the scanned relative fluorescence unit per unit time was recorded, and the temperature at its peak was considered to be the melting temperature (Tm) ([42]).

[2] = test system: BA8 Fab; assay: SPR analysis of sulfated, non-sulfated and partially sulfated CCR5 N-terminal peptides with BA8; format: binding, rabbit; details: for binding of peptide to BA8 in SPR, in words / Kd / koff: BA8 Fab immobilized, SPR; for binding of peptide to BA8 in SPR, in words: peptides 2 to 162 nM as analyte (statements of b30 and b31 cover SPR and ITC); for kon: SPR Biacore 8K, BA8 Fab immobilized on CM5 chip, PBS 0.005% Tween 20, global fitting; for kon / Kd / koff: partially sulfated peptide as analyte
Description: To quantitatively evaluate the intermolecular interaction between BA8 and the sulfated N-terminal peptide of CCR5, we prepared a Fab fragment of BA8 as a recombinant protein (Fig. S2, A and B) and conducted kinetic interaction analysis using SPR. The Fab was immobilized on a sensor chip using amine coupling, and the synthesized sulfated and non-sulfated N-terminal peptides of CCR5 were used as the analytes.
(§1) We prepared these partially sulfated peptides and analyzed their interactions with BA8 using SPR and ITC (Fig. 4, B and C, Tables 3 and 4). […] These findings indicate that sulfation at 7Tys is essential for BA8 recognition. […] Thus, the high specificity and affinity of BA8 for the sulfated CCR5 N-terminal peptide likely rely heavily on the sulfation at 7Tys and 8Tys. […] In other words, BA8 recognizes not only sulfation of the N-terminal peptide of CCR5, but it is also selective about the sulfation site.
The bindings of the peptides to Fabs were analyzed using a Biacore 8K instrument (Cytiva). Each Fab was immobilized on the surface of a CM5 sensor chip (Cytiva) by the amine-coupling method according to the manufacturer’s instructions in the condition of pH 5.5. The immobilization level reached to about 3000 Response Unit (RU). PBS containing 0.005% Tween 20 was used as the running buffer. The kinetic data were obtained by injection of increasing concentrations of peptides into the sensor chip. The flow rate of the analyte were set to 30 μl/min. The data were analyzed using BIAevaluation software (Cytiva), and the binding affinity as well as kinetic parameters were calculated by a global fitting of the curves.

[3] = target: BA8 Fab; assay: ITC analysis of sulfated, non-sulfated and partially sulfated CCR5 N-terminal peptides with BA8; format: binding, rabbit; details: PBS; for Kd / ΔH: 10 μM BA8 Fab in cell, 100 μM peptide in syringe, 25 °C
Description: To determine the thermodynamic parameters accompanying the interaction, we performed an ITC analysis (Fig. 2B, Table 2).
as §1
The ITC experiments were performed using a MicroCal PEAQ-ITC (Malvern Panalytical, Malvern, UK). The BA8 Fab fragment antibody, sufficiently dialyzed in PBS, was adjusted to 10 μM for the cells, and the CCR5 N-terminal peptide, dissolved in the dialysate, was adjusted to 100 μM for the syringe. The first injection of 0.5 μl (omitted from the analysis) was followed by 19 injections of 2 μl with 120 s intervals at a constant temperature of 25 °C. The titration syringe was continuously stirred at 750 rpm.
The baselines were smoothly adjusted for the step after each titration saturated and fitted as one set of sites binding in MicroCal PEAQ-ITC Analysis Software (Malvern Panalytical, Malvern, UK).

[4] = test system: YU2 (CCR5 tropic strain) strain in TZM-bl cells; assay: Pseudoviral assay (single-round viral infective assay) in TZM-bl cells; format: cell-based, HIV; details: 48 h post-infection, luciferase read-out, BA8 up to 50 μg/ml (approximately 350 nM)
Experimental: Subsequently, we conducted a pseudoviral test using TZM-bl cells.
The anti-HIV activity of BA8, isotype control antibody, and Maraviroc (Sigma-Aldrich) in a single-round viral infective assay against the YU2 (CCR5 tropic strain) strain in TZM-bl cells. At 48 h post-infection, cells were lysed, and relative light units were measured using a Steady-Glo luciferase assay system and GloMax Discover microplate reader (Promega).

[5] = target: full-length CCR5-FLAG co-expressed with TPST2 in HEK293 cells (C2 cells), sulfated by TPST2 (UniProt P51681); assay: flow cytometry on cells; transfected HEK293 cells (C, C1, C2, C12) or TZM-bl cells fixed with 2% paraformaldehyde; BA8 IgG detected with goat anti-rabbit IgG Alexa 488; median fluorescence against BA8 concentration fitted with a sigmoid function
[6] = target: full-length CCR5-FLAG co-expressed with TPST1 and TPST2 in HEK293 cells (C12 cells), sulfated by TPST2 (UniProt P51681); assay: as above
[7] = target: endogenous CCR5 expressed on TZM-bl cells (human (endogenous in TZM-bl)) (UniProt P51681); assay: as above
Chain of endogenous CCR5 expressed on TZM-bl cells (human (endogenous in TZM-bl)) (P51681 whole entry): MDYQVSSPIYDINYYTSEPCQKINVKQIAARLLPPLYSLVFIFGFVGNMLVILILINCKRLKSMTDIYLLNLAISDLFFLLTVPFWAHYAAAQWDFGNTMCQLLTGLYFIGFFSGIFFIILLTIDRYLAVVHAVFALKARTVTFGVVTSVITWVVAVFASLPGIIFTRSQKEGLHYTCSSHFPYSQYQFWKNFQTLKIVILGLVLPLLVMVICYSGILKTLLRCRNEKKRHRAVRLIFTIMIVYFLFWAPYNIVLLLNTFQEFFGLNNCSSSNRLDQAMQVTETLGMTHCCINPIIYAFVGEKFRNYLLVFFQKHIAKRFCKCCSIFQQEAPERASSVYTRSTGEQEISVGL

Chain of full-length CCR5-FLAG co-expressed with TPST1 and TPST2 in HEK293 cells (C12 cells), sulfated by TPST2 (P51681 whole entry): as above
Chain of full-length CCR5-FLAG co-expressed with TPST2 in HEK293 cells (C2 cells), sulfated by TPST2 (P51681 whole entry): as above

TYS3: partially sulfated CCR5 N-terminal peptide containing 3Tys (PI[sY]DINYYTSE; UniProt P51681 8-18, looked up, fragment)
effect of the peptide on the thermal stability (Tm) of BA8, in words [1]: did not change the thermal stability of BA8 at all
binding of peptide to BA8 in SPR, in words [2]: no binding; also recorded: did not exhibit binding

TYS3,7: partially sulfated CCR5 N-terminal peptide containing 3Tys and 7Tys (PI[sY]DIN[sY]YTSE; UniProt P51681 8-18, looked up, fragment)
effect of the peptide on the thermal stability (Tm) of BA8, in words [1]: lower than those of TYS3,7,8
effect of the peptide on the thermal stability (Tm) of BA8, in words ([1]; listed as TYS37): contribute to the stabilization of BA8
Kd [3]: 0.00765 µM
ΔH [3]: -66.1 kJ/mol
ΔG ([3]; 10 μM BA8 Fab, 100 μM peptide): -46.4 kJ/mol
−TΔS ([3]; 10 μM BA8 Fab, 100 μM peptide): 19.6 kJ/mol
kon [2]: 265000 mol/L/s
Kd [2]: 0.045 µM
koff [2]: 0.0119 s⁻¹
binding of peptide to BA8 in SPR, in words [2]: weak binding
binding of peptide to BA8 in SPR, in words ([2]; listed as TYS37): bound

TYS7: partially sulfated CCR5 N-terminal peptide containing 7Tys (PIYDIN[sY]YTSE; UniProt P51681 8-18, looked up, fragment)
effect of the peptide on the thermal stability (Tm) of BA8, in words [1]: contribute to the stabilization of BA8; also recorded: lower than those of TYS3,7,8
Kd [3]: 0.0134 µM
ΔH [3]: -62.3 kJ/mol
ΔG ([3]; 10 μM BA8 Fab, 100 μM peptide): -44.8 kJ/mol
−TΔS ([3]; 10 μM BA8 Fab, 100 μM peptide): 17.6 kJ/mol
kon [2]: 228000 mol/L/s
Kd [2]: 0.0678 µM
koff [2]: 0.0154 s⁻¹
binding of peptide to BA8 in SPR, in words [2]: bound; also recorded: weak binding

sulfated peptide: CCR5 N-terminal peptide Pro8 to Ser18 with sulfated Tyr10, Tyr14, and Tyr15; fully sulfated (PI[sY]DIN[sY][sY]TSE; UniProt P51681 8-18, looked up, fragment)
binding of peptide to BA8 in ITC, in words ([3]; 10 μM BA8 Fab, 100 μM peptide): so high that it could not be accurately measured
binding of peptide to BA8 in SPR, in words [2]: high binding affinity in the nanomolar range

TYS3,8: partially sulfated CCR5 N-terminal peptide containing 3Tys and 8Tys (PI[sY]DINY[sY]TSE; UniProt P51681 8-18, looked up, fragment)
effect of the peptide on the thermal stability (Tm) of BA8, in words [1]: did not change the thermal stability of BA8 at all
binding of peptide to BA8 in SPR, in words [2]: did not exhibit binding
binding of peptide to BA8 in SPR, in words ([2]; listed as TYS38): no binding

Maraviroc [reference compound]
inhibition of HIV infection, in words [4]: inhibited HIV infection; also recorded: concentration-dependent inhibition of viral infection

B1: BA8 full-length IgG (recombinant, rabbit IgG Fc) (antibody, V domains shown)
VH: QSLEESGGGLFKPTDTLTLTCTVSGFSLSSYSIRWVRQAPGNGLEWIGAIGSGGNAYYTSWAKSRSTITRNTNENTVTLKMTSLTVADTATYFCARGGINFGIWGPGTLVTVSS
VL: AAVLTQTPSPVSAAVGSTVTINCQSSQSVYSKNWLSWFQQKPGQPPKQLIYSASTLDSGVPSRFSGSGSGTQFTLTISGVQCDDAATYYCQGTYGDASAFGGGTEVVVK
EC50 [5]: 0.00364 µM
EC50 [6]: 0.00371 µM
EC50 [7]: 0.049 µM
